Results on 2 compounds are retold here after patent US20130190376A1, “METHODS OF USE OF SMALL MOLECULE MODULATORS OF HEPATOCYTE GROWTH FACTOR (SCATTER FACTOR) ACTIVITY” (priority 2010, published 2013).

The test system of test [1] is HUVECs. Briefly: Nitric oxide production in endothelial cells (DAF 2-DA fluorescence). It is filed as cell-based, human. Conditions: HUVECs incubated 24 hours. On the procedure:
c. HGF and compounds of the invention stimulate nitric oxide production in endothelial cells. HUVECs are incubated with either vehicle, HGF/SF, instant compounds, or SNAP for 24 hours, loaded with the nitric oxide-sensitive fluorescence indicator DAF 2-DA and imaged under a laser scanning confocal microscope.

Test [2] has as its system MDCK cells. In words: Anti-apoptotic activity in cultured cell lines (adriamycin). It is filed as cell-based. Conditions: pretreatment; HUVEC and MDCK cell lines. The text has this: a. HGF/SF and instant compounds have significant anti-apoptotic activity in cultured cell lines.
In test [3] the test system is LX2 cells. In words: Antifibrotic activity in hepatic stellate cells. Conditions: serum starved (activated) LX2 cells. It is filed as cell-based, human. The text has this:
a. Antifibrotic Activity in Hepatic Stellate Cells.

On to `CC(=O)N[C@@H](C(=O)O)C(C)(C)SN=O` (racemic) [SNAP, reference compound], for which, in test [1], the “nitric oxide production (DAF 2-DA fluorescence)” value is reported as “significant increase in fluorescence”.

As to “HGF/SF: Scatter factor, also known as hepatocyte growth factor; pleiotropic growth factor, heparin-binding heterodimeric protein”, the “nitric oxide production (DAF 2-DA fluorescence)” value in test [1] was “significant increase in fluorescence”. Moreover, the cell viability result in test [2] was “significantly improves the cell viability”. Moreover, in test [3], the “collagen I mRNA expression” value is listed as “decrease in collagen I mRNA expression”.
